Where two headings read alike, the source gives them in different places.
Tests used:
[1] = system: A549 cells (cancer cells); assay: Lactate assay (luminescence) in A549 cells, candidate substance alone or combined with a substance that causes lactic acidosis; format: cell-based; conditions: for activity at 50 µM: Homo sapiens
Protocol: (§1) To identify the effects of administration of the candidate substances for lactic acidosis treatment as described in Example 1 in combination with the above-mentioned substances that cause lactic acidosis, A549 cells (cancer cells) or L132 cells (normal cells) were respectively seeded in 96- or 24-well plates at a concentration of 1×10^4 or 3×10^5 cells/well, and incubation was performed overnight. Administration of the candidate substance for acidosis treatment in combination with the substance that causes lactic acidosis was performed and incubation was further performed for 24 hours. For the candidate substances for acidosis treatment, each substance was administered at a uniform concentration of 50 μM; and for the substances that cause lactic acidosis, metformin was administered at 1 to 100 μM, isoniazid was administered at 1 to 500 μM, berberine was administered at 10 μM, linezolid was administered at 200 μM, and phenformin was administered at 100 μM. All substances were dissolved in dimethyl sulfoxide (DMSO, Sigma-Aldrich Corporation, St. Louis, Mo., USA), and the substances to be administered in combination were administered simultaneously. Subsequently, 50 μl of the cell culture solution obtained by being diluted with Dulbecco's Phosphate-Buffered Saline (DPBS; Wellgene, Korea), and 50 μl of the lactate assay reaction buffer (Promega, Madison, Wis., USA) were mixed and the mixture was added in a 96-well plate. Reaction was allowed to proceed at room temperature for 1 hour. Then, luminescence was measured with a spectrophotometer (Synergy HTX Multi-Reader; BioTek, Winooski, Vt., USA). At the same time, the number of cells in each sample was measured with a cell viability analysis kit (Cell Counting Kit-8; Dojindo Molecular Technologies, Inc., Kumamoto, Japan), and calculation was performed so that the lactic acid measurement value in each sample could be compared with that in the negative control for the same number of cells.

[2] = system: L132 cells (normal cells); assay: Lactate assay (luminescence) in L132 cells, candidate substance alone or combined with a substance that causes lactic acidosis; format: cell-based; conditions: for activity at 50 µM: Homo sapiens
Protocol: as §1

[3] = A549, candidate 50 μM + berberine 10 μM, relative to berberine alone (PC)
[4] = A549, candidate 50 μM + linezolid 200 μM, relative to linezolid alone (PC)
[5] = A549, candidate 50 μM + phenformin 100 μM, relative to phenformin alone (PC)
[6] = A549, 24 h, read-out: Luminescence intensity (%), Berberine (10 μM) −
[7] = A549, 24 h, read-out: Luminescence intensity (%), Linezolid (200 μM) −
[8] = A549, 24 h, read-out: Luminescence intensity (%), Phenformin (100 μM) −
[9] = L132, 24 h, read-out: Luminescence intensity (%), Berberine (10 μM) −
[10] = L132, 24 h, read-out: Luminescence intensity (%), Linezolid (200 μM) −
[11] = L132, 24 h, read-out: Luminescence intensity (%), Phenformin (100 μM) −
[12] = L132, candidate 50 μM + berberine 10 μM, relative to berberine alone (PC)
[13] = L132, candidate 50 μM + linezolid 200 μM, relative to linezolid alone (PC)
[14] = L132, candidate 50 μM + phenformin 100 μM, relative to phenformin alone (PC)
[15] = A549, candidate 50 μM alone, no berberine, 24 h, vs negative control, mean ± SEM, read-out: Luminescence intensity (%), Berberine (10 μM) −
[16] = A549, candidate 50 μM alone, no linezolid, 24 h, vs negative control, mean ± SEM, read-out: Luminescence intensity (%), Linezolid (200 μM) −
[17] = A549, candidate 50 μM alone, no phenformin, 24 h, vs negative control, mean ± SEM, read-out: Luminescence intensity (%), Phenformin (100 μM) −
[18] = L132, candidate 50 μM alone, no berberine, 24 h, vs negative control, mean ± SEM, read-out: Luminescence intensity (%), Berberine (10 μM) −
[19] = L132, candidate 50 μM alone, no linezolid, 24 h, vs negative control, mean ± SEM, read-out: Luminescence intensity (%), Linezolid (200 μM) −
[20] = L132, candidate 50 μM alone, no phenformin, 24 h, vs negative control, mean ± SEM, read-out: Luminescence intensity (%), Phenformin (100 μM) −
[21] = L132, candidate 50 μM alone, no linezolid, 24 h, vs negative control, mean ± SEM

| Compound | Lactic acid value vs. PC (%) [1, 3] [%] | Lactic acid-decreasing rate vs. PC (%) [1, 3] [%] | Lactic acid value vs. PC (%) [1, 4] [%] | Lactic acid-decreasing rate vs. PC (%) [1, 4] [%] | Lactic acid value vs. PC (%) [1, 5] [%] | Lactic acid-decreasing rate vs. PC (%) [1, 5] [%] | Lactic acid value vs. PC (%) [2, 12] [%] | Lactic acid-decreasing rate vs. PC (%) [2, 12] [%] | Lactic acid value vs. PC (%) [2, 13] [%] | Lactic acid-decreasing rate vs. PC (%) [2, 13] [%] | Lactic acid value vs. PC (%) [2, 14] [%] | Lactic acid-decreasing rate vs. PC (%) [2, 14] [%] | activity at 50 µM [1, 15] [%] | activity at 50 µM [1, 16] [%] | activity at 50 µM [1, 17] [%] | activity at 50 µM [2, 18] [%] | activity at 50 µM [2, 19] [%] | activity at 50 µM [2, 20] [%] | further results |
| --- | --- | --- | --- | --- | --- | --- | --- | --- | --- | --- | --- | --- | --- | --- | --- | --- | --- | --- | --- |
| O=c1c(-c2ccc(O)cc2)coc2cc(O[C@@H]3O[C@H](CO)[C@@H](O)[C@H](O)[C@H]3O)ccc12 [Daidzin] | 92.49 | 7.51 | 82.45 | 17.55 | 99.76 | 0.24 | 95.94 | 4.06 | 87.80 | 12.20 | 98.19 | 1.81 |  |  |  |  |  |  | activity at 50 µM [1, 6]: 97.4 ± 1.1%; activity at 50 µM [1, 7]: 97.4 ± 1.1%; activity at 50 µM [1, 8]: 97.4 ± 1.1%; activity at 50 µM [2, 9]: 92 ± 1.14%; activity at 50 µM [2, 10]: 92 ± 1.14%; activity at 50 µM [2, 11]: 92 ± 1.14% |
| CCN(CC)C(=S)SSC(=S)N(CC)CC [Disulfiram] | 75.67 | 24.33 | 80.93 | 19.07 | 90.83 | 9.17 | 69.16 | 30.84 | 87.16 | 12.84 | 78.21 | 21.79 | 86.1 ± 1.66 | 86.1 ± 1.66 | 86.1 ± 1.66 | 93.4 ± 2.64 | 93.4 ± 2.64 | 93.4 ± 2.64 | Luminescence intensity (%), Linezolid (200 μM) − [2, 21]: 93.39 ± 2.64 % |
| Cc1cc2c(C(C)C)c(O)c(O)c(C=O)c2c(O)c1-c1c(C)cc2c(C(C)C)c(O)c(O)c(C=O)c2c1O [Gossypol] | 62.63 | 37.37 | 67.86 | 32.14 | 67.24 | 32.76 | 50.96 | 49.04 | 67.84 | 32.16 | 51.58 | 48.42 |  |  |  |  |  |  | activity at 50 µM [1, 6]: 87.6 ± 1.87%; activity at 50 µM [1, 7]: 87.6 ± 1.87%; activity at 50 µM [1, 8]: 87.6 ± 1.87%; activity at 50 µM [2, 9]: 84.3 ± 2.9%; activity at 50 µM [2, 10]: 84.3 ± 2.9%; activity at 50 µM [2, 11]: 84.3 ± 2.9% |
| O=C(O)c1cc(=O)c2ccccc2[nH]1 [Kynurenic acid] | 101.87 | −1.87 | 91.54 | 8.46 | 92.58 | 7.42 | 90.59 | 9.41 | 93.53 | 6.47 | 91.70 | 8.30 | 93.9 ± 1.1 | 93.9 ± 1.1 | 93.9 ± 1.1 | 93.7 ± 1.3 | 93.7 ± 1.3 | 93.7 ± 1.3 |  |
| CCSC(=O)N1CCCCCC1 [Molinate] | 105.78 | −5.78 | 105.88 | −5.88 | 91.13 | 8.87 | 105.04 | −5.04 | 125.68 | −25.68 | 99.16 | 0.84 | 110 ± 1.91 | 110 ± 1.91 | 110 ± 1.91 | 155 ± 3.38 | 155 ± 3.3 | 155 ± 3.38 |  |
| C#CCN(C)Cc1ccccc1 [Pargyline] | 101.89 | −1.89 | 98.24 | 1.76 | 95.59 | 4.41 | 101.56 | −1.56 | 88.70 | 11.30 | 100.88 | −0.88 | 95.68 ± 0.7 | 95.68 ± 0.7 | 95.68 ± 0.7 | 96.1 ± 1.32 | 96.1 ± 1.32 | 96.1 ± 1.32 |  |
| O=CC(=O)c1ccccc1 [Phenylglyoxal] | 90.18 | 9.82 | 82.74 | 17.26 | 89.61 | 10.39 | 90.06 | 9.94 | 88.89 | 11.11 | 96.12 | 3.88 | 97.3 ± 1.03 | 97.3 ± 1.03 | 97.3 ± 1.03 | 93.7 ± 1.34 | 93.7 ± 1.34 | 93.7 ± 1.34 |  |
| C=C(OP(=O)([O-])O)C(=O)O.O.[Na+] [Phospho(enol)pyruvic acid monosodium salt hydrate] | 90.07 | 9.93 | 92.96 | 7.04 | 94.91 | 5.09 | 93.05 | 6.95 | 89.30 | 10.70 | 91.45 | 8.55 |  |  |  |  |  |  | Luminescence intensity (%), Berberine (10 μM) − ([1]; A549, candidate 50 μM alone, no berberine, 24 h, vs negative control, mean ± SEM): 100.07 ± 1.80^ %; Luminescence intensity (%), Linezolid (200 μM) − ([1]; A549, candidate 50 μM alone, no linezolid, 24 h, vs negative control, mean ± SEM): 100.07 ± 1.80^ %; Luminescence intensity (%), Phenformin (100 μM) − ([1]; A549, candidate 50 μM alone, no phenformin, 24 h, vs negative control, mean ± SEM): 100.07 ± 1.80^ %; Luminescence intensity (%), Berberine (10 μM) − ([2]; L132, candidate 50 μM alone, no berberine, 24 h, vs negative control, mean ± SEM): 94.55 ± 1.37 %; Luminescence intensity (%), Linezolid (200 μM) − [2, 21]: 94.55 ± 1.37 %; Luminescence intensity (%), Phenformin (100 μM) − ([2]; L132, candidate 50 μM alone, no phenformin, 24 h, vs negative control, mean ± SEM): 94.55 ± 1.37 % |

Reference: US20220125745A1, “PHARMACEUTICAL COMPOSITION FOR CO-ADMINISTRATION OF ACIDOSIS-INDUCING DRUG” (HAIM BIO CO., LTD., priority 2018, published 2022)
